Data taken from the NIST ThermoML archive (doi:10.1016/j.jct.2007.04.005).

Assay: xn = mol fraction of the nth substance listed
Details: 328.15 K, Liquid

CCCCCCCCC [nonane] + C1CCCCC1
mass density [kg/m3]
Details	x2 = 0	x2 = 0.09303	x2 = 0.2009	x2 = 0.3051	x2 = 0.417	x2 = 0.512	x2 = 0.5996	x2 = 0.7052	x2 = 0.7993	x2 = 0.9039
29490 kPa	–	–	–	–	–	–	–	–	753.4	762.1
30500 kPa	716	718.8	722.8	726.7	731.3	735.7	740.9	747.5	754.2	762.9
32530 kPa	717.4	720.3	724.2	728.1	732.8	737.2	742.4	748.9	755.7	764.4
34550 kPa	718.8	721.7	725.6	729.6	734.2	738.7	743.9	750.5	757.1	765.9
36580 kPa	720.2	723.1	727	730.9	735.7	740.1	745.3	751.9	758.6	767.4
38600 kPa	721.6	724.4	728.4	732.3	737	741.5	746.7	753.3	760	768.9
39620 kPa	722.2	725.1	729	733	737.7	742.1	747.4	754	760.7	769.6
